From ChEMBL document CHEMBL3885881, “DrugMatrix”

Species: Rattus norvegicus
Experiment: DrugMatrix - Regimen: Daily Repeat
Type: toxicity, organism-based, Sprague-Dawley
Parameters: regimen Daily Repeat, gender Male, age 6-8 weeks
Conditions: in vivo, iv, vehicle 100 % SALINE; for EOSINOPHIL / ERYTHROCYTE COUNT / HEMATOCRIT / HEMOGLOBIN / LEUKOCYTE COUNT / LYMPHOCYTE / MEAN CORPUSCULAR HEMOGLOBIN / MEAN CORPUSCULAR HEMOGLOBIN CONCENTRATION / MEAN CORPUSCULAR VOLUME / MONOCYTE / NEUTROPHIL / NUCLEATED RED BLOOD CELLS / PLATELET COUNT / ABSOLUTE BASOPHIL / ABSOLUTE EOSINOPHIL / ABSOLUTE LYMPHOCYTE / ABSOLUTE MONOCYTE / ABSOLUTE SEGMENTED NEUTROPHIL / BASOPHIL: tissue Blood; for ALANINE AMINOTRANSFERASE / ALBUMIN / ALKALINE PHOSPHATASE / ASPARTATE AMINOTRANSFERASE / BLOOD UREA NITROGEN / CARBON DIOXIDE / CHLORIDE / CHOLESTEROL / CREATINE PHOSPHOKINASE / CREATININE / GLUCOSE / LACTATE DEHYDROGENASE / LIPASE / PHOSPHORUS / POTASSIUM / SODIUM / TOTAL BILIRUBIN / TOTAL PROTEIN / URIC ACID: tissue Plasma
[1] = 0 mg/kg, 72 h, dose level Control, time 3 day
[2] = 0 mg/kg, 120 h, dose level Control, time 5 day
[3] = 20 mg/kg, 72 h, dose level Low, time 3 day
[4] = 20 mg/kg, 120 h, dose level Low, time 5 day

NCC[C@H](O)C(=O)N[C@@H]1C[C@H](N)[C@@H](O[C@H]2O[C@H](CN)[C@@H](O)[C@H](O)[C@H]2O)[C@H](O)[C@H]1O[C@H]1O[C@H](CO)[C@@H](O)[C@H](N)[C@H]1O [AMIKACIN]
EOSINOPHIL [1]: 0% | ERYTHROCYTE COUNT [1]: 5.38 x10E6/uL | HEMATOCRIT [1]: 33.67% | HEMOGLOBIN [1]: 12.88 G/DL | LEUKOCYTE COUNT [1]: 8.37 x10E3/uL | LYMPHOCYTE [1]: 91.17% | MEAN CORPUSCULAR HEMOGLOBIN [1]: 23.95 pg | MEAN CORPUSCULAR HEMOGLOBIN CONCENTRATION [1]: 38.23 G/DL | MEAN CORPUSCULAR VOLUME [1]: 62.6 fL | MONOCYTE [1]: 0.83% | NEUTROPHIL [1]: 8% | NUCLEATED RED BLOOD CELLS [1]: 0.17 /100WBC | PLATELET COUNT [1]: 865 x10E3/uL | ALANINE AMINOTRANSFERASE [1]: 51.67 u/L | ALBUMIN [1]: 3.97 G/DL | ALKALINE PHOSPHATASE [1]: 351.17 u/L | ASPARTATE AMINOTRANSFERASE [1]: 82.33 u/L | BLOOD UREA NITROGEN [1]: 15.17 mg/dL | CARBON DIOXIDE [1]: 34.5 mmol/L | CHLORIDE [1]: 100 MEQ/L | CHOLESTEROL [1]: 80.33 mg/dL | CREATINE PHOSPHOKINASE [1]: 316.5 u/L | CREATININE [1]: 0.17 mg/dL | GLUCOSE [1]: 149.17 mg/dL | LACTATE DEHYDROGENASE [1]: 105.67 u/L | LIPASE [1]: 9.5 u/L | PHOSPHORUS [1]: 10.87 mg/dL | POTASSIUM [1]: 5.47 MEQ/L | SODIUM [1]: 144.2 MEQ/L | TOTAL BILIRUBIN [1]: 0.2 mg/dL | TOTAL PROTEIN [1]: 5.83 G/DL | URIC ACID [1]: 0.83 mg/dL | ABSOLUTE BASOPHIL [2]: 0 CELLS/uL | ABSOLUTE EOSINOPHIL [2]: 0 CELLS/uL | ABSOLUTE LYMPHOCYTE [2]: 6333.5 CELLS/uL | ABSOLUTE MONOCYTE [2]: 38.83 CELLS/uL | ABSOLUTE SEGMENTED NEUTROPHIL [2]: 661 CELLS/uL | BASOPHIL [2]: 0% | EOSINOPHIL [2]: 0% | ERYTHROCYTE COUNT [2]: 5.44 x10E6/uL | HEMATOCRIT [2]: 34.17% | HEMOGLOBIN [2]: 13.22 G/DL | LEUKOCYTE COUNT [2]: 7.03 x10E3/uL | LYMPHOCYTE [2]: 90.17% | MEAN CORPUSCULAR HEMOGLOBIN [2]: 24.38 pg | MEAN CORPUSCULAR HEMOGLOBIN CONCENTRATION [2]: 38.7 G/DL | MEAN CORPUSCULAR VOLUME [2]: 62.95 fL | MONOCYTE [2]: 0.5% | NEUTROPHIL [2]: 9.33% | NUCLEATED RED BLOOD CELLS [2]: 0 /100WBC | PLATELET COUNT [2]: 924.33 x10E3/uL | ALANINE AMINOTRANSFERASE [2]: 52.5 u/L | ALBUMIN [2]: 3.97 G/DL | ALKALINE PHOSPHATASE [2]: 364.83 u/L | ASPARTATE AMINOTRANSFERASE [2]: 82.5 u/L | BLOOD UREA NITROGEN [2]: 17 mg/dL | CARBON DIOXIDE [2]: 32.33 mmol/L | CHLORIDE [2]: 99.6 MEQ/L | CHOLESTEROL [2]: 75.83 mg/dL | CREATINE PHOSPHOKINASE [2]: 419 u/L | CREATININE [2]: 0.21 mg/dL | GLUCOSE [2]: 155 mg/dL | LACTATE DEHYDROGENASE [2]: 111.5 u/L | LIPASE [2]: 11.33 u/L | PHOSPHORUS [2]: 10.32 mg/dL | POTASSIUM [2]: 5.37 MEQ/L | SODIUM [2]: 144.64 MEQ/L | TOTAL BILIRUBIN [2]: 0.18 mg/dL | TOTAL PROTEIN [2]: 5.98 G/DL | URIC ACID [2]: 0.62 mg/dL | ABSOLUTE BASOPHIL [3]: 0 CELLS/uL | ABSOLUTE EOSINOPHIL [3]: 0 CELLS/uL | ABSOLUTE LYMPHOCYTE [3]: 8480.67 CELLS/uL | ABSOLUTE MONOCYTE [3]: 225.67 CELLS/uL | ABSOLUTE SEGMENTED NEUTROPHIL [3]: 993.67 CELLS/uL | BASOPHIL [3]: 0% | EOSINOPHIL [3]: 0% | ERYTHROCYTE COUNT [3]: 5.64 x10E6/uL | HEMATOCRIT [3]: 34.43% | HEMOGLOBIN [3]: 13 G/DL | LEUKOCYTE COUNT [3]: 9.7 x10E3/uL | LYMPHOCYTE [3]: 88% | MEAN CORPUSCULAR HEMOGLOBIN [3]: 23.03 pg | MEAN CORPUSCULAR HEMOGLOBIN CONCENTRATION [3]: 37.77 G/DL | MEAN CORPUSCULAR VOLUME [3]: 61 fL | MONOCYTE [3]: 2.33% | NEUTROPHIL [3]: 9.67% | NUCLEATED RED BLOOD CELLS [3]: 0.33 /100WBC | PLATELET COUNT [3]: 903.33 x10E3/uL | ALANINE AMINOTRANSFERASE [3]: 53.67 u/L | ALBUMIN [3]: 4.13 G/DL | ALKALINE PHOSPHATASE [3]: 308.67 u/L | ASPARTATE AMINOTRANSFERASE [3]: 82.33 u/L | BLOOD UREA NITROGEN [3]: 14 mg/dL | CARBON DIOXIDE [3]: 35.67 mmol/L | CHLORIDE [3]: 99 MEQ/L | CHOLESTEROL [3]: 77.33 mg/dL | CREATINE PHOSPHOKINASE [3]: 320 u/L | CREATININE [3]: 0.17 mg/dL | GLUCOSE [3]: 145.67 mg/dL | LACTATE DEHYDROGENASE [3]: 98 u/L | LIPASE [3]: 9.33 u/L | PHOSPHORUS [3]: 11.1 mg/dL | POTASSIUM [3]: 6.07 MEQ/L | SODIUM [3]: 144.47 MEQ/L | TOTAL BILIRUBIN [3]: 0.2 mg/dL | TOTAL PROTEIN [3]: 6.03 G/DL | URIC ACID [3]: 0.9 mg/dL | ABSOLUTE BASOPHIL [4]: 0 CELLS/uL | ABSOLUTE EOSINOPHIL [4]: 0 CELLS/uL | ABSOLUTE LYMPHOCYTE [4]: 3175.67 CELLS/uL
